Source: patent publication US10517889B2, “Modulators of SMAD7 expression” (Ionis Pharmaceuticals, Inc., priority 2017, dated 2019)
Strand notation (5' to 3'): a small letter for the sugar, then the base; units joined by * are phosphorothioate-linked, units joined directly phosphodiester-linked; [ ] holds rarer units or linkages, { } end groups; capitals alone tell only the bases. k = constrained ethyl (cEt); [5mC] = 5-methylcytosine; d = 2'-deoxy (DNA)

Each substance was assayed on human SMAD7 mRNA (assay: Antisense inhibition of human SMAD7 mRNA expression in Hep3B cells by 3-10-3 cEt gapmers, 10,000 nM, electroporation (Example 2)). Conditions: Hep3B cells, 10,000 nM antisense oligonucleotide, electroporation, approximately 24 hours, RT-PCR primer probe set RTS5062, relative to untreated control cells.
Assay type: cell-based
How it was run: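 Hep3B, 20,000 cells/well; electroporation, 10,000 nM ASO; ~24 h. Readout: SMAD7 mRNA by qRT-PCR (RTS5062), RIBOGREEN-normalised; % inhibition vs untreated.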
“799859 (kT*kG*kT*dA*dA*dT*dT*dT*dA*dG*d[5mC]*dA*dA*kT*kT*k[5mC]; antisense) [compound 799859]” was tested, and the “% Inhibition” value was 32%. “798911 (kG*k[5mC]*kA*d[5mC]*dG*d[5mC]*dG*dG*d[5mC]*dT*dA*d[5mC]*d[5mC]*kG*kG*k[5mC]; antisense) [compound 798911]” was tested, and the “% Inhibition” value was 0%. With “799996 (kG*kA*k[5mC]*d[5mC]*d[5mC]*dA*d[5mC]*dG*dG*dT*dT*dA*dA*kA*kT*kG; antisense) [compound 799996]” the “% Inhibition” value was 36%. For “800017 (kT*kA*kA*dA*dA*d[5mC]*dA*dG*dT*dA*dT*dG*dT*kG*kT*kT; antisense) [compound 800017]”, the “% Inhibition” value was 11%.

Same assay, conditions: Hep3B cells, electroporation with 10,000 nM antisense oligonucleotide, approximately 24 hours, RTS5062, percent inhibition of SMAD7 mRNA relative to untreated control cells
For “799294 (antisense k[5mC]*kG*k[5mC]*dG*dG*d[5mC]*d[5mC]*dT*dT*dG*dA*dT*dG*k[5mC]*kT*kG) [compound 799294]”, the “% Inhibition” value was 13%. With “799627 (k[5mC]*kA*k[5mC]*dA*dA*dG*d[5mC]*dT*dT*dG*d[5mC]*dA*d[5mC]*k[5mC]*k[5mC]*kA; antisense) [compound 799627]” the “% Inhibition” value was 48%. “799611 (kT*kG*kT*dG*dA*dA*dA*dG*dA*dG*dG*d[5mC]*dT*k[5mC]*kA*kG; antisense) [compound 799611]” was tested, and the “% Inhibition” value was 37%. With “799705 (antisense kA*kA*k[5mC]*dT*dT*dA*dA*dA*dA*dT*dG*dT*dG*k[5mC]*k[5mC]*kA) [compound 799705]” the “% Inhibition” value was 26%. In the case of “799310 (antisense kT*kA*kA*dG*d[5mC]*dA*d[5mC]*dG*d[5mC]*dT*d[5mC]*dT*dA*kA*kA*k[5mC]) [compound 799310]”, the “% Inhibition” value is reported as 18%.

Same assay, conditions: Hep3B cells, electroporation with 10,000 nM antisense oligonucleotide, approximately 24 hours, SMAD7 mRNA by RT-PCR (RTS5062), relative to untreated control cells
For “830192 (antisense kA*k[5mC]*kT*dA*dA*dT*d[5mC]*dA*dG*dA*dT*dG*d[5mC]*k[5mC]*kT*kG) [compound 830192]”, the “% Inhibition” value was 41%. For “772606 (kA*kG*k[5mC]*d[5mC]*dA*dT*dT*d[5mC]*d[5mC]*d[5mC]*d[5mC]*dT*dG*kA*kG*kG; antisense) [compound 772606]”, the “% Inhibition” value was 41%. “800039 (kG*kG*kT*dT*dA*dA*dT*dG*dG*d[5mC]*d[5mC]*d[5mC]*dA*kG*k[5mC]*k[5mC]; antisense) [compound 800039]” was tested, and the “% Inhibition” value was 27%. “799907 (antisense kA*kG*kT*dA*dA*dA*dG*dG*dG*d[5mC]*d[5mC]*dT*d[5mC]*kT*k[5mC]*kT) [compound 799907]” was tested, and the “% Inhibition” value was 10%. “830159 (antisense k[5mC]*k[5mC]*kA*d[5mC]*dT*dA*dA*dA*dT*dT*dG*dA*dG*kA*kA*k[5mC]) [compound 830159]” was tested, and the “% Inhibition” value was 42%. “798683 (antisense kG*k[5mC]*k[5mC]*dT*dG*d[5mC]*dT*dA*dA*dG*dG*dA*dG*k[5mC]*kG*kA) [compound 798683]” was tested, and the “% Inhibition” value was 51%. In the case of “830050 (kA*kG*kT*dT*dT*d[5mC]*d[5mC]*dG*dA*dT*dT*dG*dG*k[5mC]*kA*kG; antisense) [compound 830050]”, the “% Inhibition” value is reported as 39%. In the case of “772536 (antisense kG*kA*k[5mC]*d[5mC]*dT*d[5mC]*d[5mC]*dG*d[5mC]*dA*d[5mC]*dA*d[5mC]*k[5mC]*kA*kT) [compound 772536]”, the “% Inhibition” value is reported as 22%. For “799903 (antisense kT*kG*k[5mC]*dA*dT*dG*dG*d[5mC]*dA*dT*dT*dG*dT*k[5mC]*kT*kG) [compound 799903]”, the “% Inhibition” value was 34%. “830133 (antisense kA*k[5mC]*kA*dA*dT*d[5mC]*dT*d[5mC]*d[5mC]*dT*dG*dG*dA*kA*kG*k[5mC]) [compound 830133]” was tested, and the “% Inhibition” value was 26%. With “798741 (antisense k[5mC]*kT*kT*d[5mC]*dA*dG*dT*dT*dT*d[5mC]*dT*dT*dG*kA*kG*k[5mC]) [compound 798741]” the “% Inhibition” value was 17%. With “830125 (antisense kT*k[5mC]*k[5mC]*dG*dA*dG*dG*d[5mC]*dA*d[5mC]*d[5mC]*dA*d[5mC]*kA*kT*kT) [compound 830125]” the “% Inhibition” value was 46%. “799869 (k[5mC]*k[5mC]*kA*dT*dA*dA*dA*d[5mC]*dA*dT*dG*dG*dG*k[5mC]*kT*k[5mC]; antisense) [compound 799869]” was tested, and the “% Inhibition” value was 16%. For “798713 (antisense kG*k[5mC]*k[5mC]*dG*d[5mC]*d[5mC]*dA*d[5mC]*d[5mC]*dG*dG*d[5mC]*d[5mC]*k[5mC]*k[5mC]*kA) [compound 798713]”, the “% Inhibition” value was 45%.

Same assay, conditions: Hep3B cells, electroporation with 10,000 nM antisense oligonucleotide, approximately 24 hours, primer probe set RTS5062, relative to untreated control cells
For “799138 (antisense k[5mC]*k[5mC]*kA*dA*dA*dT*d[5mC]*d[5mC]*dT*dT*d[5mC]*dT*dT*kG*kG*kA) [compound 799138]”, the “% Inhibition” value was 7%. With “799016 (k[5mC]*kA*kA*dA*d[5mC]*d[5mC]*dT*d[5mC]*dT*d[5mC]*dT*dG*d[5mC]*kT*kG*kG; antisense) [compound 799016]” the “% Inhibition” value was 30%. “799243 (k[5mC]*k[5mC]*kA*d[5mC]*dT*dG*dG*dT*dG*dT*dT*d[5mC]*dG*kA*k[5mC]*kG; antisense) [compound 799243]” was tested, and the “% inhibition of SMAD7 mRNA expression” value was 19%. For “799102 (antisense k[5mC]*kG*kG*dG*dA*dA*dA*dA*dA*d[5mC]*d[5mC]*dT*dG*kA*kT*kG) [compound 799102]”, the “% Inhibition” value was 34%. For “799011 (k[5mC]*kA*kA*dA*dA*d[5mC]*dA*dA*dA*dG*dA*dG*d[5mC]*kA*k[5mC]*kG; antisense) [compound 799011]”, the “% inhibition of SMAD7 mRNA expression” value was 35%. With “799192 (antisense kT*kT*kT*d[5mC]*d[5mC]*dA*dA*dT*dG*dA*dG*dA*dA*kT*kG*k[5mC]) [compound 799192]” the “% Inhibition” value was 60%. For “798975 (antisense kT*k[5mC]*k[5mC]*d[5mC]*d[5mC]*dT*d[5mC]*dT*dT*d[5mC]*d[5mC]*dT*dA*kT*k[5mC]*kA) [compound 798975]”, the “% Inhibition” value was 47%. For “799223 (kA*kT*k[5mC]*dT*dT*dG*dT*dG*dT*dT*dT*dA*dT*k[5mC]*kT*kT; antisense) [compound 799223]”, the “% Inhibition” value was 0%. For “799079 (antisense kG*kA*kG*dA*dT*d[5mC]*d[5mC]*dA*dG*dG*dA*dG*d[5mC]*kA*kG*kA) [compound 799079]”, the “% Inhibition” value was 46%. With “799098 (antisense kA*kA*kA*dA*d[5mC]*d[5mC]*dT*dG*dA*dT*dG*dT*d[5mC]*kA*k[5mC]*k[5mC]) [compound 799098]” the “% Inhibition” value was 38%. For “799420 (antisense k[5mC]*kA*kA*dG*dA*d[5mC]*d[5mC]*dA*dA*dA*dA*dA*dT*kT*k[5mC]*kA) [compound 799420]”, the “% inhibition of SMAD7 mRNA expression” value was 32%. For “772689 (kG*kT*kT*d[5mC]*dA*dT*dT*dT*dA*dA*dA*d[5mC]*d[5mC]*kT*kT*kT; antisense) [compound 772689]”, the “% inhibition of SMAD7 mRNA expression” value was 26%. “799065 (antisense kA*kA*kA*dT*dA*dA*dT*dT*dG*dG*dT*dT*d[5mC]*kT*kG*kG) [compound 799065]” was tested, and the “% inhibition of SMAD7 mRNA expression” value was 35%.

Same assay, conditions: Hep3B cells, electroporation, 10,000 nM antisense oligonucleotide, approximately 24 hours, RTS5062, relative to untreated control cells
For “799771 (kG*k[5mC]*kA*dT*dA*dT*dG*d[5mC]*d[5mC]*dA*d[5mC]*dT*dG*kA*kG*kA; antisense) [compound 799771]”, the “% inhibition of SMAD7 mRNA expression” value was 0%.

Same assay, conditions: Hep3B cells, electroporation, 10,000 nM, approximately 24 hours; 3-10-3 cEt gapmers targeting SEQ ID NO: 3 and 4
“829940 (kG*kT*k[5mC]*dA*dG*dT*dT*dG*dG*dT*dT*dT*dG*kA*kG*kA; antisense) [compound 829940]” was tested, and the “% inhibition of SMAD7 mRNA expression” value was 14%.

Same assay, conditions: SMAD7 mRNA, Hep3B cells, 10,000 nM antisense oligonucleotide, electroporation, approximately 24 hours, primer probe set RTS5062, relative to untreated control cells
In the case of “829735 (antisense k[5mC]*k[5mC]*kT*d[5mC]*d[5mC]*dG*d[5mC]*dA*d[5mC]*dA*d[5mC]*d[5mC]*dA*kT*kG*kA) [compound 829735]”, the “% Inhibition” value is reported as 61%. In the case of “829761 (antisense kT*k[5mC]*kA*dG*dA*dT*d[5mC]*d[5mC]*dG*d[5mC]*d[5mC]*dT*d[5mC]*kG*kG*k[5mC]) [compound 829761]”, the “% Inhibition” value is reported as 21%.

Same assay, conditions: SMAD7 mRNA, Hep3B cells, electroporation with 10,000 nM antisense oligonucleotide, approximately 24 hours, primer probe set RTS5062, relative to untreated control cells
In the case of “829869 (antisense k[5mC]*kA*kG*dT*dG*dT*dG*dG*d[5mC]*dG*dG*dA*d[5mC]*kT*kT*kG) [compound 829869]”, the “% Inhibition” value is reported as 37%. With “829998 (kT*kG*kT*dT*dT*dG*dT*d[5mC]*dT*dT*dA*dG*d[5mC]*kT*kG*kT; antisense) [compound 829998]” the “% Inhibition” value was 34%. “829920 (antisense kA*kT*kA*d[5mC]*dG*dA*dG*dT*dG*dT*dA*dT*dG*kA*kG*kT) [compound 829920]” was tested, and the “% Inhibition” value was 30%. “829878 (antisense kG*kA*kG*dT*d[5mC]*d[5mC]*dG*dG*dG*dT*dT*dG*dT*k[5mC]*k[5mC]*kA) [compound 829878]” was tested, and the “% Inhibition” value was 18%. In the case of “829856 (antisense kA*k[5mC]*k[5mC]*dA*dG*d[5mC]*dT*dG*dA*d[5mC]*dT*d[5mC]*dT*kT*kG*kT) [compound 829856]”, the “% Inhibition” value is reported as 41%. “829834 (kG*kT*kG*dT*dG*dA*d[5mC]*d[5mC]*dG*dA*dT*d[5mC]*d[5mC]*k[5mC]*k[5mC]*kA; antisense) [compound 829834]” was tested, and the “% Inhibition” value was 29%. For “829880 (antisense kT*k[5mC]*k[5mC]*dT*dG*dG*dA*dG*dT*d[5mC]*d[5mC]*dG*dG*kG*kT*kT) [compound 829880]”, the “% Inhibition” value was 32%. For “829796 (kT*kT*kG*dA*dT*d[5mC]*dT*dT*d[5mC]*d[5mC]*d[5mC]*dG*dT*kA*kA*kG; antisense) [compound 829796]”, the “% Inhibition” value was 27%. “829904 (antisense kG*k[5mC]*kT*dG*dT*dT*dG*dA*dA*dG*dA*dT*dG*kA*k[5mC]*k[5mC]) [compound 829904]” was tested, and the “% Inhibition” value was 21%. For “830005 (antisense k[5mC]*kT*k[5mC]*dA*d[5mC]*d[5mC]*dA*dG*dT*dT*dG*dG*dT*kT*kT*kG) [compound 830005]”, the “% Inhibition” value was 13%.
